1 molecule from ChEMBL document CHEMBL5727115, “TYK2 inhibitors and uses thereof” (2019) can be followed below.

The assay concerns the target Non-receptor tyrosine-protein kinase TYK2 (Homo sapiens, UniProt P29597). Nature of the assay: TYK2 JH2 Domain Binding Assay: Binding constants for compounds of the present invention against the JH2 domain were determined by the following protocol for a KINOMEscan® assay (DiscoveRx). A fusion protein of a partial length construct of human TYK2 (JH2domain-pseudokinase) (amino acids G556 to D888 based on reference sequence NP_003322.3) and the DNA binding domain of NFkB was expressed in transiently transfected HEK293 cells. From these HEK 293 cells, extracts were prepared in M-PER extraction buffer (Pierce) in the presence of Protease Inhibitor Cocktail Complete (Roche) and Phosphatase Inhibitor Cocktail Set II (Merck) per manufacturers' instructions. The TYK2 (JH2domain-pseudokinase) fusion protein was labeled with a chimeric double-stranded DNA tag containing the NFkB binding site (5′-GGGAATTCCC-3′ (SEQ ID NO: 1)) fused to an amplicon for qPCR readout, which was added directly to the expression extract (the final concentration of DNA-tag in the binding reaction is 0.1 nM).Streptavidin-coated magnetic beads (Dynal M280) were treated with a biotinylated small molecule ligand for 30 minutes at room temperature to generate affinity resins the binding assays. […]. Type of assay: cell-based.

Sequence of Non-receptor tyrosine-protein kinase TYK2 (P29597 whole entry, the tested form may be a part): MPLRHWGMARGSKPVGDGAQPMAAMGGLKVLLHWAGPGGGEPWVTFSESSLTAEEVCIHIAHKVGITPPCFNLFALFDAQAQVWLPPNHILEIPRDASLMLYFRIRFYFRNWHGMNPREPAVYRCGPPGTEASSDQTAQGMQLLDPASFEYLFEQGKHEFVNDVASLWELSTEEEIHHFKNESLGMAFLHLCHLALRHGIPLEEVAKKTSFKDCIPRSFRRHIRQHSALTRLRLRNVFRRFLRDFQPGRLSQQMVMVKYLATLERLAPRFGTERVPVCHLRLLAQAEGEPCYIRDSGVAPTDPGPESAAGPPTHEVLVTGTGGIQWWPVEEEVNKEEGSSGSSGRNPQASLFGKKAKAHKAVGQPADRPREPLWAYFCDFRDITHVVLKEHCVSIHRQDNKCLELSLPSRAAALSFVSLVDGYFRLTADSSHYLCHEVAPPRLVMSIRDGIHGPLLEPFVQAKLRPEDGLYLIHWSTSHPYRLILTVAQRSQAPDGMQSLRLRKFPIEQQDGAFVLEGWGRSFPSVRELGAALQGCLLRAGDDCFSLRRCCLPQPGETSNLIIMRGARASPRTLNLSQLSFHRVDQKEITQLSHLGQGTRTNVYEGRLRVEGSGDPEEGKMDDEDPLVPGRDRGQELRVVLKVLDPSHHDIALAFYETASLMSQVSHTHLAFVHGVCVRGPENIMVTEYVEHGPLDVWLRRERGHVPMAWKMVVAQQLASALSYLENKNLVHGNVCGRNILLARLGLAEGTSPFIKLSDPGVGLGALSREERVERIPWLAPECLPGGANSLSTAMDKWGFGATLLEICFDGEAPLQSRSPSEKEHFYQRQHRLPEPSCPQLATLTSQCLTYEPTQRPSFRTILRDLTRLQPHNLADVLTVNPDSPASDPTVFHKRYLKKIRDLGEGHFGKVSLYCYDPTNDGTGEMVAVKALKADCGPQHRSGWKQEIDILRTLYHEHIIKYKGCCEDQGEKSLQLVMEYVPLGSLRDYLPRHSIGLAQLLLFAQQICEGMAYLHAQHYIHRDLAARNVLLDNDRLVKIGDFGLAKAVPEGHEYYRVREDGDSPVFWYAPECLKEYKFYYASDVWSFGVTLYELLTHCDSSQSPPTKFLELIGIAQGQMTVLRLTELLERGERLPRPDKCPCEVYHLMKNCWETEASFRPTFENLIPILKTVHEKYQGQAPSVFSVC

Take `COc1cc(Cl)ccc1Nc1cc(Nc2cc(C)ccn2)nc2[nH]n(C)c(=O)c12`: the Kd was greater than 10 nM.

As usually defined, the Kd is the free concentration of one partner at which half of the binding sites on the other are occupied at equilibrium, for simple one-to-one binding.
